The numbers were not newly measured in US7235589B2, “Method of treating patients undergoing kidney dialysis” (Bio Numerik Pharmaceuticals, Inc., priority 2004, dated 2007), which cites them from elsewhere.

SMILES strings stand for the structures.

Data set [1] deals with dogs. To be noted: intravenously, doses higher than the accepted oral LD50 for common table salt (3750 mg/kg).
Data set [2] has as its system mice. To be noted: intravenously, doses higher than the accepted oral LD50 for common table salt (3750 mg/kg).
The subject of data set [3] is humans. To be noted: doses exceeding 40 g/m^2.
For data set [4] the following is noted: accepted value.

In the case of `O=S(=O)([O-])CCSSCCS(=O)(=O)[O-].[Na+].[Na+]` [dimesna, disodium 2,2′-dithiobis ethane sulfonate], the adverse effects result in data set [1], in data set [2] and in data set [3] was “no adverse effects” in each case.
On to `[Cl-].[Na+]` [common table salt], for which the “oral LD50” value in data set [4] is listed as 3750 mg/kg.
